Where a name gives a salt, the structure may show the parent alone.

Series [1] deals with T1, Solute carrier organic anion transporter family member 1A1 (Rattus norvegicus, UniProt P46720).
T1 sequence (P46720 whole entry): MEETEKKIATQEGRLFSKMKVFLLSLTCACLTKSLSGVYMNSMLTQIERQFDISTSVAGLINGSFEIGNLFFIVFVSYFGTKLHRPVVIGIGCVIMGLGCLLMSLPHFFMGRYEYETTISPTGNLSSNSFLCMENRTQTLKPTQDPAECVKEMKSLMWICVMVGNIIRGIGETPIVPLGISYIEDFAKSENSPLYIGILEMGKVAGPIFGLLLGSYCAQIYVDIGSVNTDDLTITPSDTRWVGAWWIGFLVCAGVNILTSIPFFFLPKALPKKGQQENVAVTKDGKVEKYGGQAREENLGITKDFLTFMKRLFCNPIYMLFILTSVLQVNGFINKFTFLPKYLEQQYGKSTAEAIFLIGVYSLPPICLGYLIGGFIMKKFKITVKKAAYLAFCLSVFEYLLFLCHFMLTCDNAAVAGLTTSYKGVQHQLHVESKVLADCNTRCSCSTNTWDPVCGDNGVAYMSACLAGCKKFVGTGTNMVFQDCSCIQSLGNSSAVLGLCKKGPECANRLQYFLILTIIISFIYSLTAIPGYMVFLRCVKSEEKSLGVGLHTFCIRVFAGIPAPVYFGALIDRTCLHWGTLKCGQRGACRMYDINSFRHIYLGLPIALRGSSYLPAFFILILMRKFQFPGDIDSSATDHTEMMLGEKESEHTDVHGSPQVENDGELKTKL
Nature of the series: (§1) TP_TRANSPORTER: uptake in Xenopus laevis oocytes. As to conditions: oocyte. It is filed as functional, cell-based.

Series [2] addresses T2, Hepatic sodium/bile acid cotransporter (Rattus norvegicus, UniProt P26435).
T2 sequence (P26435 whole entry): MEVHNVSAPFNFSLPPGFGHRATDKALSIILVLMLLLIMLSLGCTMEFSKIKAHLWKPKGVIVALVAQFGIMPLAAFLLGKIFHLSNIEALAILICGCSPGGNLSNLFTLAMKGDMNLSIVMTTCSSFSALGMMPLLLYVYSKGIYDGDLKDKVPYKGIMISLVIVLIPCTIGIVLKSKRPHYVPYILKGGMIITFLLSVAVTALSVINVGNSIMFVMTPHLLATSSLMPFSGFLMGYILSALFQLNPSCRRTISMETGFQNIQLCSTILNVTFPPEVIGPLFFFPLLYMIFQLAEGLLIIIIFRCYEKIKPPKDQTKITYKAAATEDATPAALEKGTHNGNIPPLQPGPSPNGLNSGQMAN
Described as §1. As to conditions: oocyte. It is filed as functional, cell-based.

Consider `NC(Cc1ccc(Oc2ccc(OS(=O)(=O)O)c(I)c2)c(I)c1)C(=O)O` (stereo not drawn) [DIIODOTHYRONINE SULFATE], for which the Activity entry in series [1] and in series [2] was “substrate [+]” in each case.
Turning to `NC(Cc1ccc(Oc2ccc(O)c(I)c2)c(I)c1)C(=O)O` (stereo not drawn) [DIIODOTHYRONINE], the Activity entry in series [1] and in series [2] was “substrate [+]” each time.
For the compound `N[C@@H](Cc1cc(I)c(Oc2cc(I)c(O)c(I)c2)c(I)c1)C(=O)O` [LEVOTHYROXINE], the Activity result in series [1] and in series [2] was “substrate [+]” each time.
Turning to `N[C@@H](Cc1cc(I)c(Oc2ccc(O)c(I)c2)c(I)c1)C(=O)O` [LIOTHYRONINE], the Activity entry in series [1] and in series [2] was “substrate [+]” in each case.
For `N[C@@H](Cc1ccc(Oc2cc(I)c(O)c(I)c2)c(I)c1)C(=O)O.O=S(=O)(O)O` [REVERSE TRIIODOTHYRONINE(RT3) SULFATE], the Activity result in series [1] and in series [2] was “substrate [+]” each time.
Turning to `N[C@@H](Cc1ccc(Oc2cc(I)c(O)c(I)c2)c(I)c1)C(=O)O` [REVERSE TRIIODOTHYRONINE], the Activity result in series [1] and in series [2] was “substrate [+]” throughout.
In the case of `NS(=O)(=O)O.N[C@@H](Cc1cc(I)c(Oc2cc(I)c(O)c(I)c2)c(I)c1)C(=O)O` [THYROXINE SULFAMATE], in series [1], the Activity result was “substrate [+]”.
As to `NC(Cc1cc(I)c(Oc2cc(I)c(OS(=O)(=O)O)c(I)c2)c(I)c1)C(=O)O` (stereo not drawn) [THYROXINE SULFATE], the Activity entry in series [1] and in series [2] was “substrate [+]” in each case.
With `NS(=O)(=O)O.N[C@@H](Cc1cc(I)c(Oc2ccc(O)c(I)c2)c(I)c1)C(=O)O` [TRIIODOTHYRONINE SULFAMATE], the Activity result in series [1] is “substrate [+]”.
As to `N[C@@H](Cc1cc(I)c(Oc2ccc(OS(=O)(=O)O)c(I)c2)c(I)c1)C(=O)O` [TRIIODOTHYRONINE SULFATE], the Activity entry in series [1] and in series [2] was “substrate [+]” each time.

These data come from ChEMBL document CHEMBL2074407, “Identification of thyroid hormone transporters” (Biochem Biophys Res Commun, 1999).
